Paper PMC3233971 (Amino acids, 2010)
Residues, ends and D or L forms follow the SMILES beside them. No end group written: not given here. *: point of attachment. IRDye800CW = CC1(C)C(/C=C/C2=C(Oc3ccc(S(=O)(=O)O)cc3)C(=C/C=C3/N(CCCCS(=O)(=O)O)c4ccc(S(=O)(=O)O)cc4C3(C)C)/CCC2)=[N+](CCCCCC(=O)*)c2ccc(S(=O)(=O)[O-])cc21

Experiments:
LS174T tumor [1] = type: in vivo, mouse; conditions: 20 mg/kg i.p. every other day, 3 doses; 12 days after the optical imaging
LS174T tumor [2] = test: Near-infrared fluorescence imaging of LS174T tumor-bearing mice; conditions: 4 h after i.v. injection; 1 nmol dye/mouse
[3] = tested on: human umbilical endothelial cells (HUVEC); conditions: 300 μg/ml peptide, 48 h exposure, absorbance 570 nm, n = 6
[4] = tested on: LS174T human colorectal cancer cells; conditions: 300 μg/ml peptide, 48 h exposure, absorbance 570 nm, n = 6

Molecule: bevacizumab: humanized monoclonal antibody directed against human VEGF
- tumor volume (LS174T tumor [1]): 476.6 mm^3

Molecule: CC(C)C[C@H](NC(=O)[C@@H](NC(=O)[C@H](Cc1c[nH]c2ccccc12)NC(=O)CCCCC[N+]1=C(C=CC2=C(Oc3ccc(S(=O)(=O)O)cc3)C(=CC=C3N(CCCCS(=O)(=O)O)c4ccc(S(=O)(=O)O)cc4C3(C)C)CCC2)C(C)(C)c2cc(S(=O)(=O)[O-])ccc21)[C@@H](C)O)C(=O)N[C@@H](CCCNC(=N)N)C(=O)N1CCC[C@H]1C(=O)N[C@H](C(=O)N[C@@H](CC(C)C)C(=O)N[C@@H](Cc1c[nH]cn1)C(=O)N[C@H](C(=O)N[C@@H](CC(=O)O)C(=O)N[C@@H](Cc1c[nH]cn1)C(=O)N[C@@H](C)C(=O)O)[C@@H](C)O)[C@@H](C)O [scrambled peptide dye conjugate] (IRDye800CW-WTLRPTLHTDHA-OH; N-terminus and C-terminus assumed)
- renal clearance in NIR fluorescence images (LS174T tumor [2]): cleared through the kidneys much faster than the BRP peptide

Molecule: LLADTTHHRPWT [BRP]
- cell viability (MTT) [3]: 92.2 ± 2.4%
- cell viability (MTT) [4]: 98.3 ± 12.1%
